# Like-named read-outs stand apart in the source and are kept apart here.
# What was measured:
# neuroblastoma PDXs = assay: Flow cytometry of tumor infiltrating myeloid cells and lymphocytes in neuroblastoma PDXs; assay type: in vivo, mice; settings: day 10 post-treatment
# From the text: (§1) For blood and tumor samples from mice, the following antibodies were purchased from Biolegend: anti-human CD45-APC (HI30), anti-human CD3-Percp/Cy5.5 (SK7), anti-human CD8-FITC, anti-human CD4-PE/Cy7, anti-mouse CD45-APC, anti-mouse CD45-Brilliant Violet 711™ (30-F11), anti-mouse CD11b-Brilliant Violet 570™ (M1/70), anti-mouse Ly6G-FITC, anti-mouse Ly6C-PerCP/Cy5.5, and anti-mouse F4/80-PE/Cy7. Statistical analysis
# (§2) Flow cytometry analysis. For flow cytometry analyses of blood and tumor samples from mice, the following antibodies were purchased from Biolegend: anti-human CD45-APC (HI30), anti-human CD3-Percp/Cy5.5 (SK7), anti-human CD8-FITC, anti-human CD4-PE/Cy7, anti-mouse CD45-Brilliant Violet 711™ (30-F11), anti-mouse CD11b-Brilliant Violet 570™ (M1/70), anti-mouse Ly6G-FITC, anti-mouse Ly6C-PerCP/Cy5.5, and anti-mouse F4/80-PE.
# [1] = system: osteosarcoma cell line 143B xenografts; assay type: in vivo, mice; settings: day 60 post-treatment, agents added to GD2-EATs, vs GD2-EATs alone
# From the text: as §1, §2
# [2] = system: osteosarcoma cell line 143B xenografts; assay type: in vivo, mice; settings: agents added to GD2-EATs, vs GD2-EATs alone
# Procedure: Immunohistochemistry (IHC) and immunofluorescence (IF) staining were performed at the MSK Molecular Cytology Core Facility using Discovery XT processor (Ventana Medical Systems, Oro Valley, AZ) as described by Xu H, et al., Cancer Immunol Res 3: 266-277 (2015), the entirety of which is incorporated herein by reference. Tumor samples were fixed and embedded in paraffin. Anti-human CD45, anti-human CD3, and anti-mouse CD68 antibodies were used, which was followed by biotinylated secondary antibody. The detection was performed using a DAB detection kit (Ventana Medical Systems, Oro Valley, AZ) or Alexa Fluor™ 488 or 568 Tyramide Reagent (Invitrogen, Carlsbad, CA). IHC images were captured from tumor sections using a Nikon ECLIPSE Ni-U microscope and NIS-Elements 4.0 imaging software. IF images were captured using Leica Inverted Confocal SP8 and processed with Imaris (Bitplane, Zurich, Switzerland). Antigen positive cells were counted with Qupath 0.1.2.
# Immunohistochemistry and immunofluorescence staining. Immunohistochemistry (TIC) staining were performed at the MSK Molecular Cytology Core Facility using Discovery XT processor (Ventana Medical Systems). Tumor samples were fixed and embedded in paraffin. […] Antigen positive cells were counted with Qupath 0.1.2 or using positive pixel count analysis.
# [3] = system: HER2(+) osteosarcoma PDXs, HGSOS; assay: Bioluminescence imaging of Luc(+) HER2-EATs in HER2(+) osteosarcoma PDX (HGSOS / HGSOC1); assay type: in vivo, mice; settings: control HER2-EATs
# Procedure: (§3) T cells isolated from peripheral blood were stimulated with Dynabeads™ Human T-Activator CD3/CD28 for 24 hours. T cells were transduced with retroviral constructs containing tdTomato and click beetle red luciferase in RetroNectin-coated 6-well plates in the presence of IL-2 (100 IU/ml) and protamine sulfate ([…]). Transduced T cells were cultured for 8 days before being used in animal experiments.
# (§4) Mice were anesthetized and imaged after intravenous injection of 3 mg of D-luciferin (Gold Biotechnology, St. Louis, MO) on different days post T cell injection. Images were acquired using IVIS Spectrum CT In Vivo Imaging System (Caliper Life Sciences, Waltham, MA). Bioluminescence images were overlaid with photographs, and regions of interest (ROI) were drawn based on the location and contour of tumor using Living image 2.60 (Xenogen, Alameda, CA). The total counts of photons (photon/s) were obtained. Bioluminescence signals (total flux, photon/s) before T cell injection were used as baselines.
# T cell transduction. T cells isolated from peripheral blood were stimulated with Dynabeads™ Human T-Activator CD3/CD28 for 24 hours. T cells were transduced with retroviral constructs containing tdTomato and click beetle red luciferase in RetroNectin-coated 6-well plates in the presence of IL-2 (100 IU/ml) and protamine sulfate (4 μg/mL). […]
# hVEGF = assay: Serum VEGF levels by Quantikine ELISA, HGSOC1 ovarian cancer PDX mice; assay type: in vivo, human; settings: day 5 post-treatment, 48 hours after 2nd dose; with HER2-EATs
# Procedure: Concentration of VEGF serum levels were measured using a commercially available enzyme-linked immunosorbent assay (ELISA) kit (R&D Systems, Minneapolis, MN) according to the manufacturer's instruction. Briefly, serum samples and standards were incubated for 2 hours in a microplate pre-coated with human or murine anti-VEGF monoclonal antibodies. After washing three times, enzyme-linked anti-VEGF polyclonal antibodies were added. Unbound antibodies were removed by washing. […] All samples were run in triplicate, and a standard curve was established for each assay. The sensitivity of the assay was <9.0 pg/ml. Inter- and intra-assay variations were <10%.
# Measurement of serum VEGF levels. Serum VEGF levels in murine plasma were measured using Quantikine enzyme-linked immunosorbent assay (ELISA) kit (R and D Systems Cat #DVE00, RRID:AB_2800364) according to the manufacturer's instruction. […] All samples were run in triplicate, and a standard curve was established for each assay.
# [4] = system: TH1 cell cytokines (IL-2, IFN-γ, and TNF-α); assay: TH1 cell cytokine levels after GD2-EATs with VEGF blockades, neuroblastoma PDX mice; assay type: in vivo; settings: 2 hours after the first dose of GD2-EATs; combination group
# Procedure: Cytokine release assays. EAT-induced human cytokine release was analyzed in vitro and in vivo. Human Th1 cell released cytokines were analyzed by LEGENDplex™ Human Th1 Panel (Biolegend, Cat #741035). Five T cell cytokines including IL-2, IL-6, IL-10, IFN-γ and TNF-α were analyzed using mouse serum after treatment with EATs with or without VEGF blockade.
# GD2(+) neuroblastoma PDX = assay: Bioluminescence imaging of Luc(+) GD2-EATs in GD2(+) neuroblastoma PDX; assay type: in vivo, mice
# Procedure: T cell transduction. T cells isolated from peripheral blood were stimulated with Dynabeads™ Human T-Activator CD3/CD28 for 24 hours. T cells were transduced with retroviral constructs containing tdTomato and click beetle red luciferase in RetroNectin-coated 6-well plates in the presence of IL-2 (100 IU/ml) and protamine sulfate (4 μg/mL). Transduced T cells were cultured for 8 days before being used in animal experiments.
# as §4, with “Bioluminescence imaging. Mice” for “Mice”, “Biotechnology)” for “Biotechnology, St. Louis, MO)”, “vivo” for “Vivo”, “Sciences).” for “Sciences, Waltham, MA).”, “(Xenogen).” for “(Xenogen, Alameda, CA).”
# [5] = system: neuroblastoma patient-derived xenografts; assay: IHC positive pixel count analysis of CD3, CD4, CD8 T cells in neuroblastoma PDXs; assay type: in vivo, mice; settings: day 10 post-treatment; added to GD2-EATs
# Procedure: (§5) Immunohistochemistry and immunofluorescence staining. Immunohistochemistry (TIC) staining were performed at the MSK Molecular Cytology Core Facility using Discovery XT processor (Ventana Medical Systems). Tumor samples were fixed and embedded in paraffin. Anti-human CD45, anti-human CD3, anti-human CD4, anti-human CD8, anti-mouse CD31 antibodies were used, which was followed by biotinylated secondary antibody. The detection was performed using a DAB detection kit (Ventana Medical Systems) or Alexa Fluor™ 488 or 568 Tyramide Reagent (Invitrogen). IHC images were captured from tumor sections using a Nikon ECLIPSE Ni-U microscope and NIS-Elements 4.0 imaging software. Antigen positive cells were counted with Qupath 0.1.2 or using positive pixel count analysis.
# (§6) Positive Pixel Count Analysis. IHC slides were scanned (Aperio ScanScope XT) and analyzed by comparing positive pixel counts (Aperio Technologies). For analyzing tumor infiltrating lymphocytes, the largest area of intact tumor tissue was included, and oblique sections were avoided. Each slide was visually inspected to ensure specificity and sensitivity of antibody staining. After positive pixel count analysis was run, analyzed slides were examined to confirm that positively identified pixels were consistent with lymphocyte staining and not background staining. Percentages were calculated as the total number of positive pixels divided by the total number of pixels (% positive pixels/total pixels).
# [6] = system: red blood cell, leukocyte, or platelet counts; assay: Complete blood count after GD2-EATs with VEGF blockades, neuroblastoma PDX mice; assay type: in vivo; settings: GD2-EATs following bevacizumab or DC101
# Procedure: To test if VEGF blockades affected complete blood cell counts (CBC) or frequencies of tumor infiltrating myeloid cells (TIMs), CBC and flow cytometry analysis of tumors were done after the first and third doses of GD2-EATs following bevacizumab or DC101. […] The effect on TIMs was also analyzed using flow cytometry of tumors. […] TIM analysis in a second tumor model was repeated using 143B CDXs where blood and tumors were analyzed on day 5 and day 60 post treatment, respectively.
# tumor microvasculature = assay: IHC of intratumoral blood vessels (mCD31) and HIF-1α in neuroblastoma PDXs; assay type: in vivo, mice
# Procedure: as §5
# as §6, with “Each slide was visually inspected to ensure specificity and sensitivity of antibody staining.” left out
# [7] = system: osteosarcoma cell line 143B xenografts; assay: In vivo anti-tumor effect against osteosarcoma cell line 143B xenografts
# Procedure: All animal procedures were performed in compliance with Memorial Sloan Kettering Cancer Center's institutional Animal Care and Use Committee (IACUC) guidelines. BALB/c Rag2^−/−IL-2Rγc^−/− (BRG) mice were used in this study. Target antigen (+) patient-derived xenograft (PDX) was established from fresh surgical specimens with MSKCC IRB approval. Tumor cells in Matrigel (Corning Corp, Corning, NY) were implanted subcutaneously on the right flank of each mouse. Tumor size was measured using handheld Peira TM900 imaging device (Piera, Brussels, BE). Tumor growth curves and overall survival was analyzed, and the overall survival was defined as the time from start of treatment to when tumor volume reached 2000 mm^3. To define the well-being of mice, CBC analyses, changes in body weight, behavior and physical appearance were monitored. All animal experiments were repeated twice more with different donor's T cells to ensure that the results were reliable.
# In vivo anti-tumor effect was compared by area under curve (AUC) and survival curves, which were calculated. Differences between samples indicated in the figures were tested for statistical significance by two-tailed Student's t-test for two sets of data while one-way ANOVA with Tukey's post hoc test was used to among three or more sets of data. […]
# Therapeutic study with mouse xenograft model All animal procedures were performed in compliance with Memorial Sloan Kettering Cancer Center's institutional Animal Care and Use Committee (IACUC) guidelines. […] Treatment was initiated after tumors were established, average tumor volume of 100 mm^3 when measured using TM900 scanner (Piera, Brussels, BE). […] Tumor growth curves and overall survival were analyzed, and the overall survival was defined as the time from start of treatment to when tumor volume reached 2000 mm^3. To define the well-being of mice, CBC analyses, changes in body weight, behavior and physical appearance were monitored. […]
# Statistical analysis. […] Area under curves (AUCs) of tumor growth were calculated and compared among groups. […]
# GD2(+) osteosarcoma PDX = assay: Bioluminescence imaging of Luc(+) GD2-EATs in GD2(+) osteosarcoma PDX; assay type: in vivo, mice; settings: GD2-EATs plus HD dexamethasone
# Procedure: as §3, §4
# M37 breast cancer PDX = assay: In vivo anti-tumor effect in M37 breast cancer PDX; set-up: species or system mice; settings: low and intermediate dosage of dexamethasone; due to diarrhea from C. difficile infection
# Procedure: Increasing dosage of dexamethasone was tested as a premedication administered i.p. before the i.v. injection of HER2×CD3-BsAb plus activated human T cells in mice xenografted s.c. with M37 breast cancer PDX using the schedule detailed in FIG. 9A. The three dosages of intraperitoneal dexamethasone were 2 mg/kg (Dex 2), 8 mg/kg (Dex 8) and 32 mg/kg (Dex 32) once a week×3 weeks.
# [8] = agent added to GD2-EATs, compared to GD2-EATs alone
molecule,measurement,setting,value
bevacizumab: anti-human VEGF (hVEGF) antibody bevacizumab,frequencies of intratumoral hCD45(+) T cells,neuroblastoma PDXs,much more pronounced
same,tumor infiltrating hCD45(+) and CD8(+) T cells (TILs),[1],significantly increased
same,tumor infiltrating hCD45(+) and CD8(+) T cells (TILs),[1]; listed as anti-VEGF,increased frequencies of tumor infiltrating hCD45(+) T cells and CD8(+) T cells
same,CD3+ T cell infiltration / count in tumors (IHC),[2],significantly increased
same,CD3+ T cell infiltration / count in tumors (IHC),[2]; listed as anti-VEGF,significantly increased T cell count
same,Fold increase in BLI (AUC-BLI),[3],7.5
same,serum h-VEGF levels,hVEGF,significantly reduced serum h-VEGF levels
same,"TH1 cell cytokines (IL-2, IFN-γ, and TNF-α)",[4],significantly lower
same,TIL persistence,GD2(+) neuroblastoma PDX; added to GD2-EATs,significantly prolonging TIL persistence
same,Fold increase in BLI (AUC-BLI),"GD2(+) neuroblastoma PDX; neuroblastoma PDX, control GD2-EATs",2.8
same,CD4(+) TIL increase compared to GD2-EATs alone,[5],1.1 fold
same,CD8(+) TIL increase compared to GD2-EATs alone,[5],5 fold
same,increase of CD3(+) TILs compared to GD2-EATs alone,[5],3 fold
same,"red blood cell, leukocyte, or platelet counts",[6],no significant changes
same,high endothelial venules (HEVs) in tumors,tumor microvasculature; combined with GD2-EATs,induced high endothelial venules (HEVs) in tumors
same,mCD31(+) blood vessels,tumor microvasculature; day 10 post-treatment,significant increase in mCD31(+) blood vessels
same,anti-tumor effect,[7]; VEGF blockade with unarmed T cells,did not show any anti-tumor effect
same,survival,[7]; [8],prolonging mouse survival
same,tumor control / anti-tumor response,[7]; [8],significantly improved
C[C@@H]1C[C@H]2[C@@H]3CCC4=CC(=O)C=C[C@]4(C)[C@@]3(F)[C@@H](O)C[C@]2(C)[C@@]1(O)C(=O)CO [dexamethasone],mean signal intensity on day 5 vs GD2-EATs alone,GD2(+) osteosarcoma PDX,more than 10 times
same,weight loss,M37 breast cancer PDX,suffered weight loss around day 30 post treatment

# — US20250074981A1, “COMBINATION THERAPY WITH DEXAMETHASONE AND TUMOR-SPECIFIC T CELL ENGAGING MULTI-SPECIFIC ANTIBODIES FOR TREATING CANCER” (MEMORIAL SLOAN-KETTERING CANCER CENTER, priority 2021, published 2025)
